This note sets out measurements from patent publication US10385057B2, “Pyrazole compounds and methods of making and using same” (Lundbeck La Jolla Research Center, Inc., priority 2015, dated 2019).

Each structure is given as a SMILES string. Where only a bound is given, the exact number is not on record here.

Assay [1] deals with T1, MAGL (Mus musculus, UniProt O35678).
T1 construct: mouse brain membrane fraction or cell lysates for mouse assays; from tissue
T1 sequence (O35678 1-303): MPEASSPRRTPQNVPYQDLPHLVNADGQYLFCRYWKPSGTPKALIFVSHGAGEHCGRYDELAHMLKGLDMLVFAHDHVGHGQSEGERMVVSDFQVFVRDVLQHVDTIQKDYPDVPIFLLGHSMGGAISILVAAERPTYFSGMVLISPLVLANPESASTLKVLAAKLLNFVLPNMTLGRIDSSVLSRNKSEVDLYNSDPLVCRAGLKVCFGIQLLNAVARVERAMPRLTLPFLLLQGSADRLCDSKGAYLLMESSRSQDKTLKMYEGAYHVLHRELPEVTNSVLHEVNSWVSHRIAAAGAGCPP
Put plainly: In vitro competitive activity-based protein profiling, mouse MAGL. It is filed as biochemical. The conditions noted are these: for inhibition at 1 µM: read-out: MAGL % inh. 1 μM (mouse). The procedure, abridged: (§1)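 Mouse brain membranes or cell lysates (mouse) and human prefrontal cortex or cell membrane fractions (human), 1.0 mg/mL protein, preincubated with inhibitor 30 min at 37 °C, then FP-Rh or HT-01 probe 30 min at 37 °C. SDS-PAGE; MAGL and FAAH activity from in-gel fluorescence band intensity.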

For assay [2], the target named is T2, FAAH (Mus musculus, UniProt O08914).
T2 construct: mouse brain membrane fraction or cell lysates for mouse assays; from tissue
T2 sequence (O08914 1-579): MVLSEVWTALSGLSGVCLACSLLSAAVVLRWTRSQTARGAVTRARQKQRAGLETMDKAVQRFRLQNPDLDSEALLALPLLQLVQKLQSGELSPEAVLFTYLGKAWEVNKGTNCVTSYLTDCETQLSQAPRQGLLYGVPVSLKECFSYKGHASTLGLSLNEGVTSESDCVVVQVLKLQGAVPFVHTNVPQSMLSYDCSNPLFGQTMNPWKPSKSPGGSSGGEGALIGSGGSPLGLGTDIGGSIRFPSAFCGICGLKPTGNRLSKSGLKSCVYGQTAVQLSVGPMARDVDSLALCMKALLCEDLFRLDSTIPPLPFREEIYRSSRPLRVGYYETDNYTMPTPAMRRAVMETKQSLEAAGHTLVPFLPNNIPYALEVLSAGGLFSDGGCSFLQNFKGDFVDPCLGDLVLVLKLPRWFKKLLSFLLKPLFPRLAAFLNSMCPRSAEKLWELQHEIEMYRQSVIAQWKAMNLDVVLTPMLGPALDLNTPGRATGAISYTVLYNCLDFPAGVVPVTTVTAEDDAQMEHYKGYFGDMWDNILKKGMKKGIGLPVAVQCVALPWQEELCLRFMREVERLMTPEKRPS
Put plainly: In vitro competitive activity-based protein profiling, mouse FAAH. It is filed as biochemical. The conditions noted are these: for inhibition at 1 µM: read-out: FAAH % inh. 1 μM (mouse). The procedure, abridged:
as §1

Take `O=C(N1CC2CN(Cc3cccc(N4CCOCC4)c3)CC2C1)n1cc(C(F)(F)F)cn1` (stereo not drawn) [Example 145, (5-(3-morpholinobenzyl)hexahydropyrrolo[3,4-c]pyrrol-2(1H)-yl)(4-(trifluoromethyl)-1H-pyrazol-1-yl)methanone]: in assay [1], the concentration for half-maximal inhibition (IC50) – broadly, the point on the concentration scale where inhibition reaches its midpoint – was no more than 100 nM and the inhibition at 1 µM is no less than 75%. Also, in assay [2], the IC50 is no more than 100 nM and the inhibition at 1 µM was no less than 75%.
On to `O=C(N1CC2CN(Cc3ccc(F)cc3)CC2C1)n1cc(C(F)(F)F)cn1` (stereo not drawn) [Example 146, (5-(4-fluorobenzyl)hexahydropyrrolo[3,4-c]pyrrol-2(1H)-yl)(4-(trifluoromethyl)-1H-pyrazol-1-yl)methanone], for which the IC50 in assay [1] and in assay [2] was no more than 100 nM throughout. The inhibition at 1 µM in assay [1] and in assay [2] was no less than 75% in each case.
For the compound `Cc1ccc(CN2CC3CN(C(=O)n4cc(C(F)(F)F)cn4)CC3C2)cc1` (stereo not drawn) [Example 147, (5-(4-methylbenzyl)hexahydropyrrolo[3,4-c]pyrrol-2(1H)-yl)(4-(trifluoromethyl)-1H-pyrazol-1-yl)methanone], in assay [1], the half-maximal inhibitory concentration (IC50) is no more than 100 nM and the inhibition at 1 µM was no less than 75%. In assay [2], the IC50 is no more than 100 nM and the inhibition at 1 µM was no less than 75%.
For the compound `COc1ccc(CN2CC3CN(C(=O)n4cc(C(F)(F)F)cn4)CC3C2)cc1` (stereo not drawn) [Example 148, (5-(4-methoxybenzyl)hexahydropyrrolo[3,4-c]pyrrol-2(1H)-yl)(4-(trifluoromethyl)-1H-pyrazol-1-yl)methanone], in assay [1], the IC50 lay in the range of 100 to 1000 nM and the inhibition at 1 µM is no less than 75%. Besides, in assay [2], the IC50 was no more than 100 nM and the inhibition at 1 µM is no less than 75%.
Take `O=C(N1CC2CN(Cc3cccc(Cl)c3)CC2C1)n1cc(C(F)(F)F)cn1` (stereo not drawn) [Example 149, (5-(3-chlorobenzyl)hexahydropyrrolo[3,4-c]pyrrol-2(1H)-yl)(4-(trifluoromethyl)-1H-pyrazol-1-yl)methanone]: the IC50 in assay [1] was 100 to 1000 nM; in assay [2] it was no more than 100 nM. The inhibition at 1 µM in assay [1] and in assay [2] was no less than 75% throughout.
In the case of `O=C(N1CC2CN(Cc3cccc(F)c3)CC2C1)n1cc(C(F)(F)F)cn1` (stereo not drawn) [Example 150, (5-(3-fluorobenzyl)hexahydropyrrolo[3,4-c]pyrrol-2(1H)-yl)(4-(trifluoromethyl)-1H-pyrazol-1-yl)methanone], in assay [1], the IC50 is no more than 100 nM and the inhibition at 1 µM was no less than 75%. Besides, in assay [2], the IC50 was no more than 100 nM and the inhibition at 1 µM is no less than 75%.
With `O=C(N1CC2CN(Cc3ccccc3Cl)CC2C1)n1cc(C(F)(F)F)cn1` (stereo not drawn) [Example 151, (5-(2-chlorobenzyl)hexahydropyrrolo[3,4-c]pyrrol-2(1H)-yl)(4-(trifluoromethyl)-1H-pyrazol-1-yl)methanone], in assay [1], the IC50 is no more than 100 nM and the inhibition at 1 µM was no less than 75%. In addition, in assay [2], the half-inhibitory concentration (IC50) was no more than 100 nM and the inhibition at 1 µM was no less than 75%.
In the case of `O=C(N1CC2CN(Cc3ccccc3F)CC2C1)n1cc(C(F)(F)F)cn1` (stereo not drawn) [Example 152, (5-(2-fluorobenzyl)hexahydropyrrolo[3,4-c]pyrrol-2(1H)-yl)(4-(trifluoromethyl)-1H-pyrazol-1-yl)methanone], in assay [1], the IC50 was no more than 100 nM and the inhibition at 1 µM was no less than 75%. Also, in assay [2], the IC50 was no more than 100 nM and the inhibition at 1 µM was no less than 75%.
As for `Cc1ccccc1CN1CC2CN(C(=O)n3cc(C(F)(F)F)cn3)CC2C1` (stereo not drawn) [Example 153, (5-(2-methylbenzyl)hexahydropyrrolo[3,4-c]pyrrol-2(1H)-yl)(4-(trifluoromethyl)-1H-pyrazol-1-yl)methanone], in assay [1], the IC50 was no more than 100 nM and the inhibition at 1 µM is no less than 75%. Further, in assay [2], the IC50 was no more than 100 nM and the inhibition at 1 µM is no less than 75%.
Consider `COc1ccccc1CN1CC2CN(C(=O)n3cc(C(F)(F)F)cn3)CC2C1` (stereo not drawn) [Example 154, (5-(2-methoxybenzyl)hexahydropyrrolo[3,4-c]pyrrol-2(1H)-yl)(4-(trifluoromethyl)-1H-pyrazol-1-yl)methanone], for which, in assay [1], the IC50 is no more than 100 nM and the inhibition at 1 µM was no less than 75%. Also, in assay [2], the 50% inhibitory concentration (IC50) is no more than 100 nM and the inhibition at 1 µM was no less than 75%.
With `O=C(N1CC2CN(Cc3ccccc3C(F)(F)F)CC2C1)n1cc(C(F)(F)F)cn1` (stereo not drawn) [Example 155, (4-(trifluoromethyl)-1H-pyrazol-1-yl)(5-(2-(trifluoromethyl)benzyl)hexahydropyrrolo[3,4-c]pyrrol-2(1H)-yl)methanone], in assay [1], the IC50 was no more than 100 nM and the inhibition at 1 µM is no less than 75%. Further, in assay [2], the IC50 is no more than 100 nM and the inhibition at 1 µM is no less than 75%.
On to `O=C(N1CC2CN(Cc3ccccc3N3CCCC3)CC2C1)n1cc(C(F)(F)F)cn1` (stereo not drawn) [Example 156, (5-(2-(pyrrolidin-1-yl)benzyl)hexahydropyrrolo[3,4-c]pyrrol-2(1H)-yl)(4-(trifluoromethyl)-1H-pyrazol-1-yl)methanone], for which the IC50 in assay [1] was no more than 100 nM; in assay [2], 100 to 1000 nM. Further, the inhibition at 1 µM in assay [1] and in assay [2] was no less than 75% in each case.
In the case of `O=C(N1CC2CN(Cc3ccccc3N3CCOCC3)CC2C1)n1cc(C(F)(F)F)cn1` (stereo not drawn) [Example 157, (5-(2-morpholinobenzyl)hexahydropyrrolo[3,4-c]pyrrol-2(1H)-yl)(4-(trifluoromethyl)-1H-pyrazol-1-yl)methanone], in assay [1], the IC50 was no more than 100 nM and the inhibition at 1 µM is no less than 75%. In assay [2], the IC50 lay within 100 to 1000 nM and the inhibition at 1 µM was no less than 75%.
On to `CN(Cc1ccc(Oc2ccccc2)cc1)[C@@H]1C[C@@H]2CN(C(=O)n3cc(Cl)cn3)C[C@@H]2C1` [Example 158, (4-chloro-1H-pyrazol-1-yl)(cis-5-(methyl(4-phenoxybenzyl)amino)hexahydrocyclopenta[c]pyrrol-2(1H)-yl)methanone], for which the inhibition at 1 µM in assay [1] and in assay [2] was no less than 75% in each case.
Take `CN(Cc1ccc(Oc2ccccc2)cc1)[C@H]1C[C@@H]2CN(C(=O)n3cc(Cl)cn3)C[C@@H]2C1` [Example 159, (4-chloro-1H-pyrazol-1-yl)(trans-5-(methyl(4-phenoxybenzyl)amino)hexahydrocyclopenta[c]pyrrol-2(1H)-yl)methanone]: the inhibition at 1 µM in assay [1] and in assay [2] was no less than 75% throughout.
As for `CN(Cc1ccc(Oc2cccnc2)cc1)[C@@H]1C[C@@H]2CN(C(=O)n3cc(Cl)cn3)C[C@@H]2C1` [Example 160, (4-chloro-1H-pyrazol-1-yl)(cis-5-(methyl(4-(pyridin-3-yloxy)benzyl)amino)hexahydrocyclopenta[c]pyrrol-2(1H)-yl)methanone], the inhibition at 1 µM in assay [1] and in assay [2] was no less than 75% throughout.
`CN(Cc1ccc(Oc2cccnc2)cc1)[C@H]1C[C@@H]2CN(C(=O)n3cc(Cl)cn3)C[C@@H]2C1` [Example 161, (4-chloro-1H-pyrazol-1-yl)(trans-5-(methyl(4-(pyridin-3-yloxy)benzyl)amino)hexahydrocyclopenta[c]pyrrol-2(1H)-yl)methanone]: the inhibition at 1 µM in assay [1] and in assay [2] was no less than 75% each time.
With `CN(Cc1cccc(Oc2ccccc2)c1)[C@H]1C[C@@H]2CN(C(=O)n3cc(Cl)cn3)C[C@@H]2C1` [Example 162, (4-chloro-1H-pyrazol-1-yl)(trans-5-(methyl(3-phenoxybenzyl)amino)hexahydrocyclopenta[c]pyrrol-2(1H)-yl)methanone], the IC50 in assay [1] and in assay [2] was no more than 100 nM in each case. The inhibition at 1 µM in assay [1] and in assay [2] was no less than 75% each time.
Consider `CN(Cc1cccc(Oc2cccnc2)c1)[C@H]1C[C@@H]2CN(C(=O)n3cc(Cl)cn3)C[C@@H]2C1` [Example 163, (4-chloro-1H-pyrazol-1-yl)(trans-5-(methyl(3-(pyridin-3-yloxy)benzyl)amino)hexahydrocyclopenta[c]pyrrol-2(1H)-yl)methanone], for which, in assay [1], the IC50 was no more than 100 nM and the inhibition at 1 µM was no less than 75%. Besides, in assay [2], the IC50 was no more than 100 nM and the inhibition at 1 µM was no less than 75%.
With `CN(Cc1cccc(Oc2ccccc2)c1)[C@@H]1C[C@@H]2CN(C(=O)n3cc(Cl)cn3)C[C@@H]2C1` [Example 164, (4-chloro-1H-pyrazol-1-yl)(cis-5-(methyl(3-phenoxybenzyl)amino)hexahydrocyclopenta[c]pyrrol-2(1H)-yl)methanone], the IC50 in assay [1] and in assay [2] was no more than 100 nM in each case. For the same compound, the inhibition at 1 µM in assay [1] and in assay [2] was no less than 75% each time.
